In patent publication US20060288450A1, “Plant N-acylethanolamine binding proteins” (Samuel Roberts Noble Foundation, priority 2004, published 2006):

What was measured:
[1] = system: membrane-associated NAE-binding activities; settings: cited from earlier work; for challenge of [3H]NAE 14:0 binding by CB receptor antagonist: plant membranes
[2] = system: NAE binding protein (At1g26440); test: [3H]NAE 14:0 radioligand binding to recombinant At1g26440 protein expressed in E. coli; parameters: species or system Arabidopsis thaliana
Description: FIG. 4 Full length cDNAs synthesized through RT-PCR on Arabidopsis total RNA using gene specific primers to At1g26440 were cloned into pTrc His2 expression vector and the recombinant protein over expressed in E. coli Top10 competent cells (Invitrogen, Cat. No. K4400-01 and K4400-40). Positive clones selected on amp-glucose agar plates were analyzed for producing NAE 14:0 binding protein by using [^3H]NAE 14:0 binding assay (Tripathy et al., 2003). Bacterial lysate (L) prepared from pelleted positive clones induced with IPTG for recombinant protein production was used as the protein source. T10-1, T-10-2, T10-3: Positive clones carrying A. thaliana NAE-binding protein (At1g26440); T10-4: Negative clone carrying the gene sequence in reverse orientation; T10-0: Control Top10 cells. Binding assay was performed on cell lysate (L) and the affinity purified (ProBond purification system, Invitrogen) recombinant protein (P) fraction. Histograms represent binding activity (from two studies with four replicates each).
FIG. 5 Saturation binding of [^3H]NAE 14:0 to a candidate NAE binding protein (At1g26440) expressed in E. coli Top10 cell lysate. The candidate NAE binding protein was a full-length, in-frame cDNA. […]
(§1) [^3H]NAE 14:0 radioligand was synthesized from [9,10-^3H(N)]myristic acid (PerkinElmer Life Sciences, Boston) in a modified two step reaction (Hillard et al., 1995; Devane et al., 1992). […] The [^3H]NAE 14:0 formed was further purified and quantified by separating on thin layer chromatography (TLC) and radiometric scanning respectively (Tripathy et al., 2003).
Binding activity of [^3H]NAE 14:0 was carried out with DDM-solubilized microsomes from Arabidopsis (ecotype, columbia) leaves (Tripathy et al., 2003b) or recombinant protein produced in E. coli and solubilized in DDM. […] Unbound ligands were washed off with ice cold binding buffer (75 mM potassium-phosphate buffer, pH 7.2, 300 mM sucrose, 7.5 mM KCl, 0.75 mM EDTA, 0.75 mM EGTA, 0.5 mM ascorbate, 5 mM DTT, and 1.5% BSA) under vacuum and frozen filters were excised into scintillation cocktail for radioactivity estimation.

[3] = system: Arabidopsis microsomal protein; test: [3H]NAE 14:0 radioligand binding to Arabidopsis leaf microsomes; parameters: species or system Arabidopsis thaliana; settings: 5 nM SR144528, [3H]NAE 14:0 50 nM
Description: FIG. 1. Analysis of specific binding of [^3H]NAE 14:0 to DDM solubilized (0.2 mM) microsomes (25 μg of protein) isolated from A. thaliana (ecotype Columbia) leaves (150,000×g) with a concentration ranging from 10 to 80 nM. Specific binding was determined by subtracting nonspecific binding (binding in the presence of 1,500× nonradioactive NAE 14:0) values from total radioligand binding values in duplicate assays. Binding affinity and Bmax of [^3H]NAE 14:0 was estimated by fitting the saturation binding data to nonlinear regression analysis for a one-site binding equation using Prism 3.0, Graphpad software, San Diego.
FIG. 7 Microsomes from A. thaliana leaves and affinity purified (P) protein from T10-1 cell lysate were incubated with [^3H]NAE 14:0 (50 nM) in the presence and absence of CB receptor antagonist SR144528 (5 nM) to compare the influence on [3H]NAE binding. Values represent means of triplicate assays from an individual experiment reproduced twice.
as §1, with “1992). In step one, acylchloride is prepared from [3 H]” for “1992).”, “2003). […]” for “2003).”

[4] = system: defense gene (Phenylalanine-ammonia lyase) expression; settings: coadministration, leaves; cited from earlier work

Compound | challenge of [3H]NAE 14:0 binding by CB receptor antagonist [1] | affinity of recombinant protein for NAE 14:0 (saturation binding) ([2]; recombinant At1g26440 expressed in E. coli, DDM solubilized) | binding activity of [3H]NAE 14:0 (affinity) ([1]; membrane-associated, saturable, in lower nanomolar range) | effect on NAE14:0 binding ([2]; 5 nM SR144528, [3H]NAE 14:0 50 nM, recombinant At1g26440 gene product) | effect on NAE specific binding ([2]; higher concentrations of SR144528 (above 5 nM), preparation not specified) | effect on NAE14:0 binding [3] | effect on NAE-regulated defense gene expression [4]
Cc1c(C(=O)NN2CCOCC2)nn(-c2ccc(Cl)cc2Cl)c1-c1ccc(I)cc1 [AM 281] | potently challenged | – | – | – | – | – | –
CCCCCCCCCCCCCC(=O)NCCO [NAE 14:0] | – | high affinity | high affinity | – | – | – | –
SR144528 | potently challenged | – | – | diminished | eliminated | diminished | blocked
